According to patent publication US7195879B2, “Method for identifying modulators of NAv ion channels” (priority 2002, dated 2007):
pIC50: −log10 of the molar value. “And” between values parts separate entries of the source, which are not always exact repeats. Equal values may be shown once. “Also recorded” adds a separate entry of the source. Read-outs that look alike come from different tables or passages of the source.

Key:
[1] = tested on: IMR-32 cells grown in the presence of RA (fast transient inward currents); test: Whole cell voltage clamp of inward currents, IMR-32 cells grown in RA; type: cell-based, human
Procedure: The endogenous voltage gated Na currents expressed in IMR-32 cells grown in the presence or absence of 1 μM RA were measured using standard whole cell voltage clamp techniques (Hamill et al. (1981). The whole cell patch clamp technique was used to record voltage-activated currents from IMR-32 cells maintained for two or more days on 12 mm glass coverslips in the presence or absence of RA (1 μM). Cells were visualized using a Nikon Diaphot 300 with DIC Nomarski optics. The standard physiological saline (1 Ca tyrodes (“Tyrodes”) contains: 130 mM NaCl, 4 mM KCl, 1 mM CaCl2, 1.2 mM MgCl2, and 10 mM hemi-Na-HEPES (pH 7.3, 295–300 mOsm as measured using a Wescor 5500 vapor-pressure (Wescor, Inc., Logan, Utah)). Recording electrodes are fabricated from borosilicate capillary tubing (R6; Garner Glass, Claremont, Calif.), the tips are coated with dental periphery wax (Miles Laboratories, South Bend, Ind.), and have resistances of 1 to 2 MΩ when containing an intracellular saline designed to block outward currents: 140 mM CsCl, 0.483 mM CaCl2, 2 mM MgCl2, 10 mM HEPES free acid and 1 mM K4-BAPTA (100 nM free Ca^+2); pH 7.4, with dextrose added to achieve 290 mOsm). Current and voltage signals are detected and filtered at 2 kHz with an Axopatch 1D patch-clamp amplifier (Axon Instruments, Foster City, Calif.), digitally recorded with a DigiData 1200B laboratory interface (Axon Instruments) and PC compatible computer system and stored on magnetic disk for off-line analysis. Data acquisition and analysis are performed with PClamp software.
The total membrane capacitance (Cm) was determined as the difference between the maximum current after a 30 mV hyperpolarizing voltage ramp from −100 mV (generated at a rate of 10 mV/ms) and the steady state current at the final potential (−130 mV) (Dubin et al. (1999)).
Families of voltage-gated inward currents were obtained using a standard P/−4 protocol from −100 mV. Depolarizing voltage steps in increments of 10 mV were applied from a holding potential of −100 mV. Steady state inactivation was elicited by measuring the peak current at 0 mV after a 500 msec pre-pulse voltage between −140 and −20 mV in increments of 10 mV.

Nav1.3 = Nav1.3 (Homo sapiens, UniProt Q9NY46); type: cell-based
Nav = type: cell-based, human
[2] = tested on: IMR-32 cells grown in the absence of RA (inward currents); type: cell-based, human
Nav1.7 = Nav1.7 (Homo sapiens, UniProt Q15858)
[3] = tested on: TTX-R inward current (calcium currents); test: Whole cell voltage clamp, block of TTX-R inward current in IMR-32 cells; type: cell-based, human; details: 5 μM

Chain of Nav1.7 (Q15858 whole entry, looked up): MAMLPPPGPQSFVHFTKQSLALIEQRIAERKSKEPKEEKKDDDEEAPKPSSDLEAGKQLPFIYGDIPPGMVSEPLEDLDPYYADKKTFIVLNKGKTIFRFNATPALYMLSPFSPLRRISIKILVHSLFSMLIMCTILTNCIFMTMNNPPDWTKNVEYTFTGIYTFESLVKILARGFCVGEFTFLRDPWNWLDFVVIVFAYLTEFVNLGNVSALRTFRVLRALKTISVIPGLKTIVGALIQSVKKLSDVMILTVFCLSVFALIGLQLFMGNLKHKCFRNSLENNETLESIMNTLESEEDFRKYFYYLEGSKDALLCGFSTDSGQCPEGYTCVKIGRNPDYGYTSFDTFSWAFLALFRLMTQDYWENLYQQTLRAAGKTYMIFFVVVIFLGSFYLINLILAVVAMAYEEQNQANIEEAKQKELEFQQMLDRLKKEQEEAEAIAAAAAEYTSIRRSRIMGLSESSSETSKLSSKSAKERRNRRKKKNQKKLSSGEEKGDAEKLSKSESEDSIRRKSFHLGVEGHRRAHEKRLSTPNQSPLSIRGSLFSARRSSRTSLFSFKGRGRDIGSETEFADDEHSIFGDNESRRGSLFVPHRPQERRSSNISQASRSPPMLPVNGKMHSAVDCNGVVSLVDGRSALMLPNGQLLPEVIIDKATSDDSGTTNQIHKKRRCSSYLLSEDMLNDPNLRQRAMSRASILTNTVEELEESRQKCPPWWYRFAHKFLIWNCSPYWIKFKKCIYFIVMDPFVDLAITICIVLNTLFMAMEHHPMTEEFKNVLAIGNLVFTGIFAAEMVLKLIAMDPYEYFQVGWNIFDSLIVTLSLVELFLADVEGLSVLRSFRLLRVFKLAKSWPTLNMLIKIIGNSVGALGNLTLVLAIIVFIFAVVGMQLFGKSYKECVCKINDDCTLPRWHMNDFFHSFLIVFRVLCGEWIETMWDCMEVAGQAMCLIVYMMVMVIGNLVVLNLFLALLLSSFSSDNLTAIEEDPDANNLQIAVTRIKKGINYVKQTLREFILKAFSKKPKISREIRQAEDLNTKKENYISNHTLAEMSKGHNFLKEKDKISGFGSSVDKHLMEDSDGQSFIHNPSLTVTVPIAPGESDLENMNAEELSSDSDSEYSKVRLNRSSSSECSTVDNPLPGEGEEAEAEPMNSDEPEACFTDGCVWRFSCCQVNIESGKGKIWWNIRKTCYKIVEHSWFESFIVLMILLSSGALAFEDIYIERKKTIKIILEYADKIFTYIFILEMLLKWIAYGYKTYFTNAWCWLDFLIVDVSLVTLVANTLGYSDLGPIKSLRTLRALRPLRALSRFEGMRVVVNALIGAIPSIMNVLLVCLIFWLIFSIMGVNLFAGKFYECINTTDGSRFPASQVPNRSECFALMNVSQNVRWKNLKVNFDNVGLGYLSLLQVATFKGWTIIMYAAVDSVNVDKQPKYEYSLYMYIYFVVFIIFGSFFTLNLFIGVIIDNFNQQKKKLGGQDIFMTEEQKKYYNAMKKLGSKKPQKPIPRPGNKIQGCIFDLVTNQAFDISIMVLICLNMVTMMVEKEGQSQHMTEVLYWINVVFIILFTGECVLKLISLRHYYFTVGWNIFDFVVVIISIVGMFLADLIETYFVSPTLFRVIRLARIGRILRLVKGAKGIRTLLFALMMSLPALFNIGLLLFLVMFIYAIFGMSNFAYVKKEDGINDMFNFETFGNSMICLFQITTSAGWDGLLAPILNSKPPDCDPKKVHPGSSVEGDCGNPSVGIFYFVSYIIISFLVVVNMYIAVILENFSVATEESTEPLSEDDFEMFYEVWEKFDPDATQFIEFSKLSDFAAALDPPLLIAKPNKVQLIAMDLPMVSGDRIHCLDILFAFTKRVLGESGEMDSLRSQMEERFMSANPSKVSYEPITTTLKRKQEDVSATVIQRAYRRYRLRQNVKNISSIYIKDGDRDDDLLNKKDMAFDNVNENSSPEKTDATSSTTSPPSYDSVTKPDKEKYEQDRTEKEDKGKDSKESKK
Chain of Nav1.3 (Q9NY46 whole entry, looked up): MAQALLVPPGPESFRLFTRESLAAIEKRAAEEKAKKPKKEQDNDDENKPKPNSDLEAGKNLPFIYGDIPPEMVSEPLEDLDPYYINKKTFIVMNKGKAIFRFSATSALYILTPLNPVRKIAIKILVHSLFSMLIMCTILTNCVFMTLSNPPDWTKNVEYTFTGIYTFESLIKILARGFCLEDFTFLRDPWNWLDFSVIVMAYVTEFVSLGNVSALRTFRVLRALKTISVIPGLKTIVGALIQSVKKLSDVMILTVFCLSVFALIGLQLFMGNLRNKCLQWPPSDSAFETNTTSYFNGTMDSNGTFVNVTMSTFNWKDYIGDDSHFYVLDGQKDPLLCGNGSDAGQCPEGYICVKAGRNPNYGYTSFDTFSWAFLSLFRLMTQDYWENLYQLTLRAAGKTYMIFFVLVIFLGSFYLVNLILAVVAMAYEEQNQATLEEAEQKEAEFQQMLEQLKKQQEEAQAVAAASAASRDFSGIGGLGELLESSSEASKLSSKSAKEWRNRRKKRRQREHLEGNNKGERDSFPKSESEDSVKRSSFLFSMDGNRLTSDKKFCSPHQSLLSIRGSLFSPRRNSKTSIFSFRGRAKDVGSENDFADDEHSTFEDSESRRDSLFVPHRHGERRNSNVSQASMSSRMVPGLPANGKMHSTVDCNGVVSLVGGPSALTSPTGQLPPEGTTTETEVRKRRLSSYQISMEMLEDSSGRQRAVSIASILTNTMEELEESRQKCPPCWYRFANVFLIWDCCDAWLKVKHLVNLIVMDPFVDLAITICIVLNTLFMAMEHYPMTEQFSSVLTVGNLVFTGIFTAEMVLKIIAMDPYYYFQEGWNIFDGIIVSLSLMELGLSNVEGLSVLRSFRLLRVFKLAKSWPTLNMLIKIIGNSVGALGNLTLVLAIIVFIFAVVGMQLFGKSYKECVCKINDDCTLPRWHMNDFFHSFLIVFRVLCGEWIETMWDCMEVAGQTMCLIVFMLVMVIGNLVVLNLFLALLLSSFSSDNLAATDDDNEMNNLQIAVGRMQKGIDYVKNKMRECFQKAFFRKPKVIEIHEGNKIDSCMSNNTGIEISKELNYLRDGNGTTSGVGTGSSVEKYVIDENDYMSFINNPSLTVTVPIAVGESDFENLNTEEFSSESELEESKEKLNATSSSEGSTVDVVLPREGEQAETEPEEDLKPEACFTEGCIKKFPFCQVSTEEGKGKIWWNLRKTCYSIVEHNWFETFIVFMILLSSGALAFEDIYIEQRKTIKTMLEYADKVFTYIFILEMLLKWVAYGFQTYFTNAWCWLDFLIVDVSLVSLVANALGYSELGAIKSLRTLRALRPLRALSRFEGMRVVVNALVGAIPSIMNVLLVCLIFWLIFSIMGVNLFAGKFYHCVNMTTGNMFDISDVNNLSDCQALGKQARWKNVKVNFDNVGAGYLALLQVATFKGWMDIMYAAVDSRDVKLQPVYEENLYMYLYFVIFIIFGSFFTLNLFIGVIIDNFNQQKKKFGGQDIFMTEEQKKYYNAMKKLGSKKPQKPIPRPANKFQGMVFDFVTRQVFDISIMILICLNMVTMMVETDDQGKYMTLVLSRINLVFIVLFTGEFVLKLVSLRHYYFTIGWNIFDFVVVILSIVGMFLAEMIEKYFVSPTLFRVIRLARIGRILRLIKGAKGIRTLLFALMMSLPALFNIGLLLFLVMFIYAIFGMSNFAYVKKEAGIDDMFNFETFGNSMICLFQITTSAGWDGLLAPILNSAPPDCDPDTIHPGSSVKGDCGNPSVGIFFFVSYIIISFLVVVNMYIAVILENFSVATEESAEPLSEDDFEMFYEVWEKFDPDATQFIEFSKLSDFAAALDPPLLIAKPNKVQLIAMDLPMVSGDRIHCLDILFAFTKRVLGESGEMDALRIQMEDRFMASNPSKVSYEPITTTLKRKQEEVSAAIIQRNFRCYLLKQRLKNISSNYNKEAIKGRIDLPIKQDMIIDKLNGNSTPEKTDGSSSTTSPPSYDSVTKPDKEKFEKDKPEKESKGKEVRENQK

For `CC1=C(/C=C/C(C)=C\C=C\C(C)=C\C(=O)O)C(C)(C)CCC1` [RA, 9-cis RA], the peak inward currents ([1]; cells grown for more than two weeks in RA, tested in Tyrodes, n=24, vs -43.3 without RA, p<0.02) was −75.3+/−10.6 pA/pF.
For `NC1=N[C@H](O)[C@H]2[C@H]3O[C@]4(O)O[C@@H]([C@@H](O)[C@@]2(N1)[C@@H]4O)[C@]3(O)CO` [TTX, tetrodotoxin], the “TTX-S component of inward currents, proportion of total current” value [1] was 36+/−7%, the “block of inward currents” value [1] was 92% and the “effect on inward currents” value [1] was “little effect”. For the same compound, the “block of veratridine-induced depolarization / fluorescence signal” value (Nav1.3) was “completely suppressed; also recorded: completely blocked; also recorded: nearly completely blocks”, the “proportion of the veratridine-induced response blocked” value (Nav1.3) was 90% and 88% and 89% and the “steepness of the dose response relationship” value (Nav1.3) was 0.76 and 0.89 and 0.79. For the same compound, the pIC50 (Nav1.3; read-out: IC50, block of veratridine-stimulated sodium influx) was 8.48, the pIC50 (Nav1.3; read-out: concentration to half block the veratridine-induced increase in fluorescence (IC50)) was 8.55 and the “effect on FRET signal” value (Nav) was “dose dependent decreases”. The “TTX-S component of inward currents, proportion of total current” value [2] was 17+/−6%, the “block of inward currents” value [2] was “only partially blocked” and the “block of veratridine induced signal” value (Nav1.7) was “nearly completely blocks”. The “proportion of the veratridine-induced response blocked” value (Nav1.7) was 82% and 80% and the “steepness of the dose response relationship” value (Nav1.7) was 1.0 and 1.5.
In the case of `COCC(=O)O[C@]1(CCN(C)CCCc2nc3ccccc3[nH]2)CCc2cc(F)ccc2[C@@H]1C(C)C` [mibefradil], the “block of the TTX-R current” value [3] was “in part”.
